# Laboratory results taken from patent US20250313533A1, “QUINOLINE CARBOXYLIC ACID ESTER COMPOUND AND PREPARATION METHOD AND USE THEREOF” (priority 2019, published 2025).
# Tests used:
# [1] = tested on: pathogenic bacteria causing fruit blotch in watermelons; assay: In vitro bactericidal activity, fruit blotch in watermelons; type: cell-based, acidovorax; conditions: read-out: inhibitory rate; for inhibition at 1 ppm: dosage 1 ppm; for inhibition at 5 ppm: dosage 5 ppm
# Description: (§1) Under aseptic conditions, equal amounts of NB culture medium were added to test tubes, and fixed amounts of the sample solutions were pipetted into the above test tubes in an ascending order of concentrations, respectively. The mixtures were well mixed and added with equal amounts of a bacterial suspension in log phase.
# (§2) Each step of the procedure was repeated 4 times. After mixing, the mixture samples were incubated in the dark in a shaking incubator at 25° C. The OD values were measured when the bacteria were in log phase.
# [2] = tested on: pathogenic bacteria causing black shank in potatoes; assay: In vitro bactericidal activity, black shank in potatoes; type: cell-based; conditions: read-out: inhibitory rate; for inhibition at 1 ppm: dosage 1 ppm; for inhibition at 5 ppm: dosage 5 ppm
# Description: as §1, §2
# [3] = tested on: pathogenic bacteria causing bacterial wilt in tobacco; assay: whole plant or invertebrate; type: cell-based, ralstonia; conditions: read-out: inhibitory rate
# [4] = tested on: cucumber seedlings; assay: Safety for plant growth after application; type: in vivo; conditions: dosage 200 ppm
# Text: (§3) Taking indoor potted cucumber seedlings as an example, the influence of the compound disclosed herein on growth rate of plant height, chlorophyll content, leaf area, etc. of crops was mainly evaluated.
# The results of safety and health-care effect of the compounds of the present disclosure on cucumber seedlings are shown in the following table 1: […]
# [5] = tested on: fruit blotch in watermelons; assay: whole plant or invertebrate; conditions: read-out: efficacy against fruit blotch in watermelons
# [6] = tested on: pathogenic bacteria causing bacterial blight in rice; assay: whole plant or invertebrate; type: cell-based, xanthomonas; conditions: read-out: inhibitory rate
# [7] = tested on: pathogenic bacteria causing bacterial wilt in cassava; assay: organism not typed; type: cell-based; conditions: read-out: inhibitory rate
# [8] = tested on: indoor potted cucumber seedlings; assay: Effect of improving growth and development of crops; type: in vivo; set-up: Rate of growth rate increase (%): concentration or dose not given beside the values; conditions: versus blank control; for Rate of chlorophyll content increase (%) / Rate of leaf area increase (%): 14 days after application; for Rate of growth rate increase (%): plant height 14 days after application; for Rate of leaf area increase (%): second leaf
# Description: as §3
# The plant heights of plants before application and 14 days after the application were measured.
# The growth rates were calculated according to formula (1)
# The rates of the growth rate increase (%) were calculated according to formula (2)
# The longitudinal and transverse diameters (i.e., leaf length and leaf width, respectively, wherein the leaf length is the distance from the base to the tip of a leaf, and leaf width is the measured value of the upper shoulder width of the leaf) of the second leaf of plants before application and 14 days after the application were measured.
# The leaf areas were calculated according to formula (3)
# The leaf area increases were calculated according to formula (4)
# The rates of the leaf area increases were calculated according to formula (5)
# The chlorophyll contents of leaves were measured by using a chlorophyll measuring instrument (model: SPAD-520 Plus).
# The chlorophyll content increases were calculated according to formula (6)
# The rates of the chlorophyll content increases were calculated according to formula (7)
# [9] = tested on: stem rot in sweet potatoes; assay: whole plant or invertebrate; conditions: read-out: efficacy against stem rot in sweet potatoes
# [10] = tested on: pathogenic bacteria causing bacterial angular leaf spot in cucumbers; assay: In vitro bactericidal activity, bacterial angular leaf spot in cucumbers; type: cell-based, pseudomonas; conditions: read-out: inhibitory rate; for inhibition at 1 ppm: dosage 1 ppm; for inhibition at 5 ppm: dosage 5 ppm
# Description: as §1, §2
# [11] = tested on: pathogenic bacteria causing fire blight in pears; assay: In vitro bactericidal activity, fire blight in pears; type: cell-based, erwinia; conditions: Erwinia, read-out: inhibitory rate; for inhibition at 1 ppm: dosage 1 ppm; for inhibition at 5 ppm: dosage 5 ppm
# Description: as §1, §2
# [12] = tested on: pathogenic bacteria causing stem rot in sweet potatoes; assay: In vitro bactericidal activity, stem rot in sweet potatoes; type: cell-based, dikia; conditions: read-out: inhibitory rate; for inhibition at 1 ppm: dosage 1 ppm; for inhibition at 5 ppm: dosage 5 ppm
# Description: as §1, §2
# [13] = tested on: black shank in potatoes; assay: Living crops in vivo protective activity, potatoes (root irrigation); conditions: Solanum tuberosum, read-out: efficacy against black shank in potatoes; for pest or weed control at 5 ppm: dosage 5 ppm; for pest or weed control at 10 ppm: dosage 10 ppm
# Description: Root irrigation was carried out on the potatoes for tests according to the designed concentration of the agents. The dosage for each plant was 200 mL and was kept consistent (also for the control). The black shank bacteria were inoculated on the second day after the application. The results were investigated according to the disease condition.
# [14] = tested on: soft rot in Chinese cabbages; assay: whole plant or invertebrate; conditions: 48 h, read-out: efficacy against soft rot in Chinese cabbages
# [15] = tested on: bacterial wilt in tobacco; assay: whole plant or invertebrate; conditions: Nicotiana tabacum, read-out: efficacy against bacterial wilt in tobacco
# [16] = tested on: pathogenic bacteria causing black rot in Chinese cabbages; assay: In vitro bactericidal activity, black rot in Chinese cabbages; type: cell-based, xanthomonas; conditions: Xanthomonas, read-out: inhibitory rate; for inhibition at 1 ppm: dosage 1 ppm; for inhibition at 5 ppm: dosage 5 ppm
# Description: as §1, §2
# [17] = tested on: bacterial blight in rice; assay: whole plant or invertebrate; conditions: Oryza sativa, read-out: efficacy against bacterial blight in rice
SMILES,inhibition at 1 ppm [1],inhibition at 5 ppm [1],inhibition at 1 ppm [2],inhibition at 5 ppm [2],inhibition at 1 ppm [3],inhibition at 5 ppm [3],"safety for plant growth (discoloration, necrosis, wilt, malformation) [4]",pest or weed control at 5 ppm [5],pest or weed control at 10 ppm [5],inhibition at 1 ppm [6],inhibition at 5 ppm [6],inhibition at 1 ppm [7],inhibition at 5 ppm [7],pest or weed control at 5 ppm [9],pest or weed control at 10 ppm [9],inhibition at 1 ppm [10],inhibition at 5 ppm [10],inhibition at 1 ppm [11],inhibition at 5 ppm [11],inhibition at 1 ppm [12],other results
"COCCOC(=O)c1cn(C2CC2)c2ccc(F)cc2c1=O [Compound 10, 2-methoxyethyl 1-cyclopropyl-6-fluoro-4-oxo-1,4-dihydroquinoline-3-carboxylate]",≥ 90%,≥ 90%,≥ 80%,≥ 90%,≥ 80%,≥ 90%,safe for plant growth,≥ 90%,≥ 90%,≥ 80%,≥ 90%,≥ 90%,≥ 90%,≥ 90%,≥ 90%,≥ 90%,≥ 90%,≥ 90%,≥ 90%,≥ 90%,Rate of chlorophyll content increase (%) [8]: 13%; Rate of growth rate increase (%) [8]: 9%; Rate of leaf area increase (%) [8]: 10%; inhibition at 5 ppm [12]: ≥ 90%; pest or weed control at 5 ppm [13]: ≥ 80%; pest or weed control at 10 ppm [13]: ≥ 90%; pest or weed control at 5 ppm [14]: ≥ 80%; pest or weed control at 10 ppm [14]: ≥ 90%; pest or weed control at 5 ppm [15]: ≥ 90%; pest or weed control at 10 ppm [15]: ≥ 90%; inhibition at 1 ppm [16]: ≥ 90%; inhibition at 5 ppm [16]: ≥ 90%; pest or weed control at 5 ppm [17]: ≥ 80%; pest or weed control at 10 ppm [17]: ≥ 90%
COCOC(=O)c1cn(C2CC2)c2cc(Cl)c(F)cc2c1=O [Compound 143],≥ 80%,≥ 90%,≥ 80%,≥ 90%,≥ 80%,≥ 90%,safe for plant growth,≥ 90%,≥ 90%,≥ 80%,≥ 90%,≥ 80%,≥ 90%,≥ 90%,≥ 90%,≥ 80%,≥ 90%,≥ 80%,≥ 90%,≥ 80%,Rate of chlorophyll content increase (%) [8]: 11%; Rate of growth rate increase (%) [8]: 8%; Rate of leaf area increase (%) [8]: 15%; inhibition at 5 ppm [12]: ≥ 90%; pest or weed control at 5 ppm [13]: ≥ 80%; pest or weed control at 10 ppm [13]: ≥ 90%; pest or weed control at 5 ppm [14]: ≥ 80%; pest or weed control at 10 ppm [14]: ≥ 90%; pest or weed control at 5 ppm [15]: ≥ 90%; pest or weed control at 10 ppm [15]: ≥ 90%; inhibition at 1 ppm [16]: ≥ 80%; inhibition at 5 ppm [16]: ≥ 90%; pest or weed control at 5 ppm [17]: ≥ 80%; pest or weed control at 10 ppm [17]: ≥ 90%
CCOCOC(=O)c1cn(C2CC2)c2cc(Cl)c(F)cc2c1=O [Compound 144],≥ 80%,≥ 90%,≥ 80%,≥ 90%,≥ 80%,≥ 90%,safe for plant growth,≥ 90%,≥ 90%,≥ 80%,≥ 90%,≥ 80%,≥ 90%,≥ 90%,≥ 90%,≥ 80%,≥ 90%,≥ 80%,≥ 90%,≥ 80%,Rate of chlorophyll content increase (%) [8]: 18%; Rate of growth rate increase (%) [8]: 10%; Rate of leaf area increase (%) [8]: 13%; inhibition at 5 ppm [12]: ≥ 90%; pest or weed control at 5 ppm [13]: ≥ 80%; pest or weed control at 10 ppm [13]: ≥ 90%; pest or weed control at 5 ppm [14]: ≥ 80%; pest or weed control at 10 ppm [14]: ≥ 90%; pest or weed control at 5 ppm [15]: ≥ 90%; pest or weed control at 10 ppm [15]: ≥ 90%; inhibition at 1 ppm [16]: ≥ 80%; inhibition at 5 ppm [16]: ≥ 90%; pest or weed control at 5 ppm [17]: ≥ 80%; pest or weed control at 10 ppm [17]: ≥ 90%
"COCCOC(=O)c1cn(C2CC2)c2cc(SC)c(F)cc2c1=O [Compound 381, 2-methoxyethyl 1-cyclopropyl-6-fluoro-7-methylthio-4-oxo-1,4-dihydroquinoline-3-carboxylate]",≥ 90%,≥ 90%,≥ 90%,≥ 90%,≥ 90%,≥ 90%,safe for plant growth,≥ 90%,≥ 90%,≥ 90%,≥ 90%,≥ 90%,≥ 90%,≥ 90%,≥ 90%,≥ 90%,≥ 90%,≥ 90%,≥ 90%,≥ 90%,inhibition at 5 ppm [12]: ≥ 90%; pest or weed control at 5 ppm [13]: ≥ 90%; pest or weed control at 10 ppm [13]: ≥ 90%; pest or weed control at 5 ppm [14]: ≥ 90%; pest or weed control at 10 ppm [14]: ≥ 90%; pest or weed control at 5 ppm [15]: ≥ 90%; pest or weed control at 10 ppm [15]: ≥ 90%; inhibition at 1 ppm [16]: ≥ 90%; inhibition at 5 ppm [16]: ≥ 90%; pest or weed control at 5 ppm [17]: ≥ 90%; pest or weed control at 10 ppm [17]: ≥ 90%
CCOCCOC(=O)c1cn(C2CC2)c2cc(SCC)c(F)cc2c1=O [Compound 397],≥ 90%,≥ 90%,≥ 90%,≥ 90%,≥ 90%,≥ 90%,safe for plant growth,≥ 90%,≥ 90%,≥ 90%,≥ 90%,≥ 90%,≥ 90%,≥ 90%,≥ 90%,≥ 90%,≥ 90%,≥ 80%,≥ 90%,≥ 90%,inhibition at 5 ppm [12]: ≥ 90%; pest or weed control at 5 ppm [13]: ≥ 90%; pest or weed control at 10 ppm [13]: ≥ 90%; pest or weed control at 5 ppm [14]: ≥ 80%; pest or weed control at 10 ppm [14]: ≥ 90%; pest or weed control at 5 ppm [15]: ≥ 90%; pest or weed control at 10 ppm [15]: ≥ 90%; inhibition at 1 ppm [16]: ≥ 80%; inhibition at 5 ppm [16]: ≥ 90%; pest or weed control at 5 ppm [17]: ≥ 90%; pest or weed control at 10 ppm [17]: ≥ 90%
